Results: PMC5218480 (PLoS ONE, 2017)

Test system: MV-4-11 cells
Assay: Gene expression microarray analysis (Affymetrix PrimeView) and GSEA
Format: cell-based, human
Set-up: RFU PODN (11730768_x_at) / Fold change /veh PODN (11730768_x_at) / RFU LINC00158 (11744669_a_at) / Fold change /veh LINC00158 (11744669_a_at) / RFU DUSP10 (11751237_a_at) / Fold change /veh DUSP10 (11751237_a_at) / RFU ID3 (11757404_x_at) / Fold change /veh ID3 (11757404_x_at) / RFU PLEKHG5 (11737974_s_at) / Fold change /veh PLEKHG5 (11737974_s_at) / RFU LRRC4B (11730491_at) / Fold change /veh LRRC4B (11730491_at) / RFU GIMAP4 (11747438_a_at) / Fold change /veh GIMAP4 (11747438_a_at) / RFU KRT8 (11758183_x_at) / Fold change /veh KRT8 (11758183_x_at) / RFU CNN1 (11734310_a_at) / Fold change /veh CNN1 (11734310_a_at) / RFU VPS37D (11726825_at) / Fold change /veh VPS37D (11726825_at) / RFU C10orf10 (11716522_x_at) / Fold change /veh C10orf10 (11716522_x_at) / RFU KIR2DL2 /// KIR2DL4 /// KIR2DL5A /// KIR2DL5B /// KIR2DS1 /// KIR2DS2 /// KIR2DS3 /// KIR2DS4 /// KIR3DL3 /// KIR3DL3 /// KIR3DS1 (11738374_at) / Fold change /veh KIR2DL2 /// KIR2DL4 /// KIR2DL5A /// KIR2DL5B /// KIR2DS1 /// KIR2DS2 /// KIR2DS3 /// KIR2DS4 /// KIR3DL3 /// KIR3DL3 /// KIR3DS1 (11738374_at) / RFU C1QL1 (11718748_at) / Fold change /veh C1QL1 (11718748_at) / RFU TMPRSS4 (11747572_a_at) / Fold change /veh TMPRSS4 (11747572_a_at) / RFU HAMP (11756126_x_at) / Fold change /veh HAMP (11756126_x_at) / RFU RNFT2 (11725882_a_at) / Fold change /veh RNFT2 (11725882_a_at) / RFU NR4A2 (11747474_a_at) / Fold change /veh NR4A2 (11747474_a_at) / RFU ABCC12 (11746883_a_at) / Fold change /veh ABCC12 (11746883_a_at) / RFU TMEM136 (11760407_x_at) / Fold change /veh TMEM136 (11760407_x_at) / RFU CLDN22 /// WWC2 (11732394_at) / Fold change /veh CLDN22 /// WWC2 (11732394_at) / RFU HLA-DPB1 (11760878_x_at) / Fold change /veh HLA-DPB1 (11760878_x_at) / RFU SPINT1 (11716480_a_at) / Fold change /veh SPINT1 (11716480_a_at) / RFU GAP43 (11754022_s_at) / Fold change /veh GAP43 (11754022_s_at) / RFU A4GNT (11735810_at) / Fold change /veh A4GNT (11735810_at) / RFU PRB3 (11715151_x_at) / Fold change /veh PRB3 (11715151_x_at) / RFU TUBB4B (11761932_at) / Fold change /veh TUBB4B (11761932_at) / RFU CAPN14 (11732068_a_at) / Fold change /veh CAPN14 (11732068_a_at) / RFU TMCC2 (11721928_a_at) / Fold change /veh TMCC2 (11721928_a_at) / RFU IRGQ (11745062_a_at) / Fold change /veh IRGQ (11745062_a_at) / RFU FAM174B (11720279_a_at) / Fold change /veh FAM174B (11720279_a_at) / RFU TMPRSS4 (11748680_a_at) / Fold change /veh TMPRSS4 (11748680_a_at) / RFU FAM212B (11763350_a_at) / Fold change /veh FAM212B (11763350_a_at) / RFU PLEKHG5 (11743358_a_at) / Fold change /veh PLEKHG5 (11743358_a_at) / RFU ZSCAN30 (11745921_a_at) / Fold change /veh ZSCAN30 (11745921_a_at) / RFU CMKLR1 (11741424_a_at) / Fold change /veh CMKLR1 (11741424_a_at) / RFU LOC101060620 /// MAPK8IP1 (11723275_at) / Fold change /veh LOC101060620 /// MAPK8IP1 (11723275_at) / RFU SPTSSB (11747773_x_at) / Fold change /veh SPTSSB (11747773_x_at) / RFU PRSS12 (11739890_at) / Fold change /veh PRSS12 (11739890_at) / RFU BIN1 (11741810_x_at) / Fold change /veh BIN1 (11741810_x_at) / RFU WNT11 (11732464_a_at) / Fold change /veh WNT11 (11732464_a_at) / RFU C10orf10 (11716521_a_at) / Fold change /veh C10orf10 (11716521_a_at) / RFU C5orf56 (11738089_at) / Fold change /veh C5orf56 (11738089_at) / RFU CYB561 (11721691_x_at) / Fold change /veh CYB561 (11721691_x_at) / RFU ANKRD19P (11752326_a_at) / Fold change /veh ANKRD19P (11752326_a_at) / RFU OR2T12 /// OR2T33 /// OR2T8 (11738714_s_at) / Fold change /veh OR2T12 /// OR2T33 /// OR2T8 (11738714_s_at) / RFU VCAN (11748164_a_at) / Fold change /veh VCAN (11748164_a_at) / RFU JSRP1 (11732532_at) / Fold change /veh JSRP1 (11732532_at) / RFU KRTAP10-11 (11738290_x_at) / Fold change /veh KRTAP10-11 (11738290_x_at) / RFU MYO3A (11730013_a_at) / Fold change /veh MYO3A (11730013_a_at) / RFU EBF3 (11725865_a_at) / Fold change /veh EBF3 (11725865_a_at) / RFU CAMK2N1 (11719241_x_at) / Fold change /veh CAMK2N1 (11719241_x_at) / RFU C5orf56 (11738088_a_at) / Fold change /veh C5orf56 (11738088_a_at) / RFU OLFML3 (11715873_a_at) / Fold change /veh OLFML3 (11715873_a_at) / RFU LOC100653217 /// NTM (11731650_a_at) / Fold change /veh LOC100653217 /// NTM (11731650_a_at) / RFU MAPK11 (11762145_a_at) / Fold change /veh MAPK11 (11762145_a_at) / RFU FIZ1 (11724087_x_at) / Fold change /veh FIZ1 (11724087_x_at) / RFU OASL (11726364_x_at) / Fold change /veh OASL (11726364_x_at) / RFU SOX15 (11748057_x_at) / Fold change /veh SOX15 (11748057_x_at) / RFU CD79A (11719716_a_at) / Fold change /veh CD79A (11719716_a_at) / RFU HIST1H1D (11736915_at) / Fold change /veh HIST1H1D (11736915_at) / RFU CASKIN2 (11723855_a_at) / Fold change /veh CASKIN2 (11723855_a_at) / RFU LOC730098 (11760151_x_at) / Fold change /veh LOC730098 (11760151_x_at) / RFU OR4N2 (11742367_at) / Fold change /veh OR4N2 (11742367_at) / RFU PRRT2 (11749266_a_at) / Fold change /veh PRRT2 (11749266_a_at) / RFU SNX32 (11753110_a_at) / Fold change /veh SNX32 (11753110_a_at) / RFU CDHR5 (11726645_a_at) / Fold change /veh CDHR5 (11726645_a_at) / RFU RCAN1 (11760418_a_at) / Fold change /veh RCAN1 (11760418_a_at) / RFU FAM167A (11723789_a_at) / Fold change /veh FAM167A (11723789_a_at) / RFU FAM26E (11764081_at) / Fold change /veh FAM26E (11764081_at) / RFU ISYNA1 (11749810_s_at) / Fold change /veh ISYNA1 (11749810_s_at) / RFU ACY1 (11761880_at) / Fold change /veh ACY1 (11761880_at) / RFU 11764098_at / Fold change /veh 11764098_at / RFU SAMD14 (11745864_x_at) / Fold change /veh SAMD14 (11745864_x_at) / RFU NPB (11741838_a_at) / Fold change /veh NPB (11741838_a_at) / RFU TMPRSS6 (11731388_a_at) / Fold change /veh TMPRSS6 (11731388_a_at) / RFU KRTAP10-2 (11738614_at) / Fold change /veh KRTAP10-2 (11738614_at) / RFU ARHGAP8 /// PRR5-ARHGAP8 (11727945_x_at) / Fold change /veh ARHGAP8 /// PRR5-ARHGAP8 (11727945_x_at) / RFU KRTAP5-7 /// NADSYN1 (11734609_at) / Fold change /veh KRTAP5-7 /// NADSYN1 (11734609_at) / RFU RASL12 (11751679_a_at) / Fold change /veh RASL12 (11751679_a_at) / RFU CDKN2B (11736163_a_at) / Fold change /veh CDKN2B (11736163_a_at) / RFU PRF1 (11729649_at) / Fold change /veh PRF1 (11729649_at) / RFU, ZNF638 /// ZNF638-IT1 / Fold change vs veh, ZNF638 /// ZNF638-IT1 / RFU, PANK3 / Fold change vs veh, PANK3 / RFU, SH3YL1 / Fold change vs veh, SH3YL1 / RFU, ZEB2 / Fold change vs veh, ZEB2 / RFU, NRIP1 / Fold change vs veh, NRIP1 / RFU, PTTG1IP / Fold change vs veh, PTTG1IP / RFU, CAPN2 / Fold change vs veh, CAPN2 / RFU, MED14 / Fold change vs veh, MED14 / RFU, SNORA58 / Fold change vs veh, SNORA58 / RFU, C1orf63 / Fold change vs veh, C1orf63 / RFU, LRRFIP1 / Fold change vs veh, LRRFIP1 / RFU, NDUFAF7 / Fold change vs veh, NDUFAF7 / RFU, SLC12A2 / Fold change vs veh, SLC12A2 / RFU, IBTK / Fold change vs veh, IBTK / RFU, ESF1 / Fold change vs veh, ESF1 / Fold change vs veh, TMEM50B / RFU, TAOK1 / Fold change vs veh, TAOK1 / RFU, ACBD3 / Fold change vs veh, ACBD3 / RFU, TMA16 / Fold change vs veh, TMA16 / RFU, RWDD3 / Fold change vs veh, RWDD3 / RFU, BCAT1 / Fold change vs veh, BCAT1 / RFU, EDEM3 / Fold change vs veh, EDEM3 / RFU, TMEM33 / Fold change vs veh, TMEM33 / RFU, WDR75 / Fold change vs veh, WDR75 / RFU, AHCTF1 / Fold change vs veh, AHCTF1 / RFU, TFRC / Fold change vs veh, TFRC / RFU, ZDHHC17 / Fold change vs veh, ZDHHC17 / RFU, NOM1 / Fold change vs veh, NOM1 / RFU, ARL8B / Fold change vs veh, ARL8B / RFU, ZBTB11 / Fold change vs veh, ZBTB11 / RFU, TAMM41 / Fold change vs veh, TAMM41 / RFU, KIAA1704 /// LOC100996395 / Fold change vs veh, KIAA1704 /// LOC100996395 / RFU, ING1 / Fold change vs veh, ING1 / RFU, TRMT61B / Fold change vs veh, TRMT61B / RFU, FUBP3 / Fold change vs veh, FUBP3 / RFU, TP53 / Fold change vs veh, TP53 / RFU, TNKS2 / Fold change vs veh, TNKS2 / RFU, ZFP14 / Fold change vs veh, ZFP14 / RFU, ACTR2 / Fold change vs veh, ACTR2 / RFU, PPP3R1 / Fold change vs veh, PPP3R1 / RFU, PIK3R1 / Fold change vs veh, PIK3R1 / RFU, HNRNPA1 / Fold change vs veh, HNRNPA1 / RFU, RNF170 / Fold change vs veh, RNF170 / RFU, ZNF28 / Fold change vs veh, ZNF28 / RFU, RNGTT / Fold change vs veh, RNGTT / RFU, OGT / Fold change vs veh, OGT / RFU, BRD1 / Fold change vs veh, BRD1 / RFU, MARS / Fold change vs veh, MARS / RFU, ZNF655 / Fold change vs veh, ZNF655 / RFU, FAHD1 / Fold change vs veh, FAHD1 / RFU, BDP1 / Fold change vs veh, BDP1 / RFU, LRRCC1 / Fold change vs veh, LRRCC1 / RFU, ARID1A / Fold change vs veh, ARID1A / RFU, ZNF146 / Fold change vs veh, ZNF146 / RFU, ZNF330 / Fold change vs veh, ZNF330 / RFU, GPN3 / Fold change vs veh, GPN3 / RFU, C9orf123 / Fold change vs veh, C9orf123 / RFU, N4BP2L2 / Fold change vs veh, N4BP2L2 / RFU, ARFIP1 / Fold change vs veh, ARFIP1 / RFU, FAM179B / Fold change vs veh, FAM179B / RFU, BCL10 / Fold change vs veh, BCL10 / RFU, UHRF1BP1L / Fold change vs veh, UHRF1BP1L / RFU, BET1 / Fold change vs veh, BET1 / RFU, CNOT2 / Fold change vs veh, CNOT2 / RFU, ZNF268 / Fold change vs veh, ZNF268 / Fold change vs veh, ZNF507 / RFU, DGCR2 / Fold change vs veh, DGCR2 / RFU, WDSUB1 / Fold change vs veh, WDSUB1 / Fold change vs veh, HSP90B1 /// MIR3652 / RFU, ADSS / Fold change vs veh, ADSS / RFU, GK / Fold change vs veh, GK / RFU, ZNF148 / Fold change vs veh, ZNF148 / RFU, TAF9 / Fold change vs veh, TAF9 / RFU, SLC1A5 / Fold change vs veh, SLC1A5 / RFU, SLMO2 / Fold change vs veh, SLMO2 / RFU, ABCC4 / Fold change vs veh, ABCC4 / RFU, LOC101060439 /// RAP1B / Fold change vs veh, LOC101060439 /// RAP1B / RFU, RFX7 / Fold change vs veh, RFX7 / RFU, GTPBP10 / Fold change vs veh, GTPBP10 / RFU, CNEP1R1 / Fold change vs veh, CNEP1R1 / RFU, BIVM-ERCC5 /// ERCC5 / Fold change vs veh, BIVM-ERCC5 /// ERCC5 / RFU, ILF3 / Fold change vs veh, ILF3 / RFU 11762660_at / Fold change /veh 11762660_at / RFU VCAN (11757783_s_at) / Fold change /veh VCAN (11757783_s_at) / RFU DDX43 (11728927_at) / Fold change /veh DDX43 (11728927_at) / RFU KRT8 (11758188_x_at) / Fold change /veh KRT8 (11758188_x_at) / RFU NKD1 (11759106_at) / Fold change /veh NKD1 (11759106_at) / RFU SRD5A1 (11742802_a_at) / Fold change /veh SRD5A1 (11742802_a_at) / RFU TPSAB1 /// TPSB2 (11721975_s_at) / Fold change /veh TPSAB1 /// TPSB2 (11721975_s_at) / RFU GSTM3 (11746129_a_at) / Fold change /veh GSTM3 (11746129_a_at) / RFU IL23R (11737362_x_at) / Fold change /veh IL23R (11737362_x_at) / RFU TMEM51 (11727254_a_at) / Fold change /veh TMEM51 (11727254_a_at) / RFU PIWIL2 (11732686_x_at) / Fold change /veh PIWIL2 (11732686_x_at) / RFU ORM1 (11744905_x_at) / Fold change /veh ORM1 (11744905_x_at) / RFU CCDC152 (11743942_at) / Fold change /veh CCDC152 (11743942_at) / RFU ECM1 (11717891_a_at) / Fold change /veh ECM1 (11717891_a_at) / RFU IL23R (11748794_a_at) / Fold change /veh IL23R (11748794_a_at) / RFU TNFAIP8L3 (11732012_x_at) / Fold change /veh TNFAIP8L3 (11732012_x_at) / RFU MBOAT4 (11741988_at) / Fold change /veh MBOAT4 (11741988_at) / RFU 11764193_at / Fold change /veh 11764193_at / RFU TMEM53 (11763286_at) / Fold change /veh TMEM53 (11763286_at) / RFU MAGEB2 (11727129_at) / Fold change /veh MAGEB2 (11727129_at) / RFU TMEM200A (11744735_a_at) / Fold change /veh TMEM200A (11744735_a_at) / RFU CCDC152 (11751479_a_at) / Fold change /veh CCDC152 (11751479_a_at) / RFU FAM211A (11726209_a_at) / Fold change /veh FAM211A (11726209_a_at) / RFU RGS16 (11746705_a_at) / Fold change /veh RGS16 (11746705_a_at) / RFU VCAN (11755009_s_at) / Fold change /veh VCAN (11755009_s_at) / RFU RHOB (11743442_s_at) / Fold change /veh RHOB (11743442_s_at) / RFU RGS16 (11720943_a_at) / Fold change /veh RGS16 (11720943_a_at) / RFU RGS16 (11720944_at) / Fold change /veh RGS16 (11720944_at) / RFU, VPS4B / Fold change vs veh, VPS4B / RFU, CREB1 / Fold change vs veh, CREB1 / RFU, DNAJC13 / Fold change vs veh, DNAJC13 / RFU, GNAQ / Fold change vs veh, GNAQ / RFU, CDK5R1 / Fold change vs veh, CDK5R1 / RFU, ZRANB3 / Fold change vs veh, ZRANB3 / RFU, CUL4A / Fold change vs veh, CUL4A / RFU, CCNY / Fold change vs veh, CCNY / RFU, UFL1 / Fold change vs veh, UFL1 / RFU, COG3 / Fold change vs veh, COG3 / RFU, DIAPH2 / Fold change vs veh, DIAPH2 / RFU, SKA2 / Fold change vs veh, SKA2 / RFU, AFF3 / Fold change vs veh, AFF3 / RFU, LMF1 / Fold change vs veh, LMF1 / RFU, IPO11 / Fold change vs veh, IPO11 / RFU, DFFB / Fold change vs veh, DFFB / RFU, FOXP1 / Fold change vs veh, FOXP1 / RFU, CARD8 / Fold change vs veh, CARD8 / RFU, STRN3 / Fold change vs veh, STRN3 / RFU, ADK / Fold change vs veh, ADK / RFU, RASSF2 / Fold change vs veh, RASSF2 / RFU, WIPF1 / Fold change vs veh, WIPF1 / RFU, LARP1B / Fold change vs veh, LARP1B / RFU, RASA1 / Fold change vs veh, RASA1 / RFU, RB1 / Fold change vs veh, RB1 / RFU, PPFIA1 / Fold change vs veh, PPFIA1 / RFU, MAT2A / Fold change vs veh, MAT2A / RFU, CCT5 / Fold change vs veh, CCT5 / RFU, WDR92 / Fold change vs veh, WDR92 / RFU, CUX1 / Fold change vs veh, CUX1 / RFU, TTC7A / Fold change vs veh, TTC7A / RFU, TMEM135 / Fold change vs veh, TMEM135 / RFU, DEPTOR / Fold change vs veh, DEPTOR / RFU, CPM / Fold change vs veh, CPM / RFU, DNAJB6 / Fold change vs veh, DNAJB6 / RFU, CACNA2D3 / Fold change vs veh, CACNA2D3 / RFU, DTX4 / Fold change vs veh, DTX4 / RFU, TFCP2 / Fold change vs veh, TFCP2 / RFU, GMCL1 /// GMCL1P1 / Fold change vs veh, GMCL1 /// GMCL1P1 / RFU, AEBP2 / Fold change vs veh, AEBP2 / RFU, SNHG1 /// SNORD22 /// SNORD25 /// SNORD26 /// SNORD27 /// SNORD28 /// SNORD29 /// SNORD31 / Fold change vs veh, SNHG1 /// SNORD22 /// SNORD25 /// SNORD26 /// SNORD27 /// SNORD28 /// SNORD29 /// SNORD31 / Fold change (Aza/veh), C12orf56 (ProbeSet 11735607_a_at) / Fold change (ACY-1035/veh), C12orf56 (ProbeSet 11735607_a_at) / Fold change (Aza/veh), FGFR1OP (ProbeSet 11751329_s_at) / Fold change (ACY-1035/veh), FGFR1OP (ProbeSet 11751329_s_at) / Fold change (Aza/veh), VPS36 (ProbeSet 11739960_a_at) / Fold change (ACY-1035/veh), VPS36 (ProbeSet 11739960_a_at) / RFU SYPL1 (11715823_x_at) / Fold change /veh SYPL1 (11715823_x_at) / RFU IGFBP7 (11715501_s_at) / Fold change /veh IGFBP7 (11715501_s_at) / RFU REEP3 (11722064_at) / Fold change /veh REEP3 (11722064_at) / RFU IGLL1 (11728026_x_at) / Fold change /veh IGLL1 (11728026_x_at): dose or concentration left out as unconfirmed
Conditions: ProbeSet 11741199_a_at; LIST B

Nc1ccc(-c2cccs2)cc1NC(=O)c1ccc2c(c1)cc(C1CC1)n2CCN1CCOCC1 [ACY-1035]
RFU, LRRCC1: 56.24 RFU
